Measured values as given in patent publication US20070197590A1, “SUBSTITUTED DIPIPERIDINE CCR2 ANTAGONISTS” (priority 2006, published 2007).
Read-outs that look alike come from different tables or passages of the source.

Key:
CCR2 = biological target: T1, CCR2 (Homo sapiens, UniProt P41597); test: MCP-1 Receptor Binding Assay in THP-1 Cells; settings: for IC50: THP-1 cells, 0.5 nM 125I labeled MCP-1, 2 hours at 30° C., read-out: Inhibition of MCP-1 Binding IC50
T1 construct: host or cells: THP-1 cells
T1 sequence (P41597 1-360 isoform P41597-2): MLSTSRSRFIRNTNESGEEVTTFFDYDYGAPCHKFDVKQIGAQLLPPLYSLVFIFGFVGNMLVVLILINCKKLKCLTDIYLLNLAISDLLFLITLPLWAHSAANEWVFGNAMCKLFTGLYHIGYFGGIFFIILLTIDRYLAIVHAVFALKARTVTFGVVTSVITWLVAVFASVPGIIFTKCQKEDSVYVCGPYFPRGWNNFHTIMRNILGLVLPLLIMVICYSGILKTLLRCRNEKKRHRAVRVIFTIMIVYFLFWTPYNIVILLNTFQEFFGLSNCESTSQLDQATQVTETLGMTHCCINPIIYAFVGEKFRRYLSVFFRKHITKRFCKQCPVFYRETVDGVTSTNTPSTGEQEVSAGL
How it was run: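 Whole THP-1 cells incubated 2 h at 30° C with 0.5 nM 125I-MCP-1 and varying compound concentrations; bound radioactivity harvested on filters and counted by scintillation. Nonspecific binding with 1 μM cold MCP-1; IC50 for inhibition of binding versus vehicle.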

[1] = test system: MCP-1 induced calcium ion influx in THP-1 cells; test: MCP-1 Induced Calcium Mobilization in THP-1 Cells; assay type: cell-based; settings: for IC50: 0.2 μM MCP-1, FLIPR, read-out: Inhibition of MCP-1 Induced Calcium Ion Influx IC50; for inhibition at 25 µM: THP-1, test concentration of 25 μM, given where an IC50 value was not obtained, read-out: Inhibition of MCP-1 Induced Calcium Ion Influx, percent inhibition
Method: THP-1 cells were plated at a density of 8×10^5 cells/mL (100 μL/well) into poly-D lysine coated clear bottom, black 96 well plates. The cells were loaded with 5 μM fluo-3 for 45 minutes. The fluo-3 washed off and cells were incubated with varying concentrations of test compound for 15 minutes. The change in calcium ion concentration upon addition of 0.2 μM MCP-1 was determined using FLIPR and compared to vehicle.
Table 2 lists IC50 values for inhibition of MCP-1 induced influx of calcium ions.

[2] = Homo sapiens, THP-1, THP-1 cells

| Structure (SMILES) | IC50 (CCR2) [nM] | IC50 [1, 2] [nM] | IC50 ([1]; THP-1 cells) [nM] | inhibition at 25 µM ([1]; Homo sapiens) [%] | inhibition at 25 µM (CCR2; test concentration of 25 μM, given where an IC50 value was not obtained, read-out: Inhibition of MCP-1 Binding, percent inhibition) [%] |
| --- | --- | --- | --- | --- | --- |
| COc1ccc(C2CCN(CC(O)C3CCN(C(=S)Nc4ccc(C(F)(F)F)cc4)CC3)CC2)cc1 (stereo not shown) [Compound 106, 4-{1-hydroxy-2-[4-(4-methoxy-phenyl)-piperidin-1-yl]-ethyl}-piperidine-1-carbothioic acid (4-trifluoromethyl-phenyl)-amide] | 760 | 2600 | – | – | – |
| COc1ccc(C2CCN(CC(O)C3CCN(C(=S)Nc4ccc(Cl)c(Cl)c4)CC3)CC2)cc1 (stereo not shown) [Compound 108, 4-{1-hydroxy-2-[4-(4-methoxy-phenyl)-piperidin-1-yl]-ethyl}-piperidine-1-carbothioic acid (3,4-dichloro-phenyl)-amide] | 210 | – | 480 | – | – |
| COc1ccc(C2CCN(CC(O)C3(O)CCN(C(=O)/C=C/c4ccsc4)CC3)CC2)cc1 (stereo not shown) [Compound 113] | 1600 | 4900 | – | – | – |
| COc1ccc(C2CCN(CC(O)C3(O)CCN(C(=O)Nc4ccc(F)c(F)c4)CC3)CC2)cc1 (stereo not shown) [Compound 114, 4-hydroxy-4-{1-hydroxy-2-[4-(4-methoxy-phenyl)-piperidin-1-yl]-ethyl}-piperidine-1-carboxylic acid (3,4-difluoro-phenyl)-amide] | 1100 | – | – | 55 | – |
| COc1ccc(C2CCN(CC(O)C3(O)CCN(C(=O)Nc4cc(F)cc(F)c4)CC3)CC2)cc1 (stereo not shown) [Compound 115, 4-hydroxy-4-{1-hydroxy-2-[4-(4-methoxy-phenyl)-piperidin-1-yl]-ethyl}-piperidine-1-carboxylic acid (3,5-difluoro-phenyl)-amide] | 910 | – | – | 57 | – |
| COc1ccc(C2CCN(CC(O)C3(O)CCN(C(=O)Nc4ccc(Cl)c(Cl)c4)CC3)CC2)cc1 (stereo not shown) [Compound 116, 4-hydroxy-4-{1-hydroxy-2-[4-(4-methoxy-phenyl)-piperidin-1-yl]-ethyl}-piperidine-1-carboxylic acid (3,4-dichloro-phenyl)-amide] | 530 | 840 | – | – | – |
| COc1ccc(C2CCN(CC(O)C3(O)CCN(C(=S)Nc4ccc(Cl)c(Cl)c4)CC3)CC2)cc1 (stereo not shown) [Compound 117, 4-hydroxy-4-{1-hydroxy-2-[4-(4-methoxy-phenyl)-piperidin-1-yl]-ethyl}-piperidine-1-carbothioic acid (3,4-dichloro-phenyl)-amide] | 1300 | 1200 | – | – | – |
| COc1ccc(C2CCN(CC(O)C3(O)CCN(C(=S)Nc4cc(Cl)cc(Cl)c4)CC3)CC2)cc1 (stereo not shown) [Compound 118, 4-hydroxy-4-{1-hydroxy-2-[4-(4-methoxy-phenyl)-piperidin-1-yl]-ethyl}-piperidine-1-carbothioic acid (3,5-dichloro-phenyl)-amide] | 1300 | 3100 | – | – | – |
| OC(CN1CCC(c2c[nH]c3ccccc23)CC1)C1(O)CCN(c2nccc(C(F)(F)F)n2)CC1 (stereo not shown) [Compound 120, 4-{1-hydroxy-2-[4-(1H-indol-3-yl)-piperidin-1-yl]-ethyl}-1-(4-trifluoromethyl-pyrimidin-2-yl)-piperidin-4-ol] | 1900 | – | – | 13 | – |
| OC(CN1CCC(c2nc3ccccc3[nH]2)CC1)C1(O)CCN(c2nccc(C(F)(F)F)n2)CC1 (stereo not shown) [Compound 121, 4-{2-[4-(1H-benzoimidazol-2-yl)-piperidin-1-yl]-1-hydroxy-ethyl}-1-(4-trifluoromethyl-pyrimidin-2-yl)-piperidin-4-ol] | – | – | – | 65 | 50 |
| Cc1ccc2[nH]cc(C3CCN(CC(O)C4(O)CCN(c5nccc(C(F)(F)F)n5)CC4)CC3)c2c1 (stereo not shown) [Compound 123, 4-{1-hydroxy-2-[4-(5-methyl-1H-indol-3-yl)-piperidin-1-yl]-ethyl}-1-(4-trifluoromethyl-pyrimidin-2-yl)-piperidin-4-ol] | 9400 | – | – | 68 | – |
| N#Cc1ccc2[nH]cc(C3CCN(CC(O)C4(O)CCN(c5nccc(C(F)(F)F)n5)CC4)CC3)c2c1 (stereo not shown) [Compound 124, 3-(1-{2-hydroxy-2-[4-hydroxy-1-(4-trifluoromethyl-pyrimidin-2-yl)-piperidin-4-yl]-ethyl}-piperidin-4-yl)-1H-indole-5-carbonitrile] | 8300 | – | – | 43 | – |
| O=C(/C=C/c1ccc(F)c(F)c1)N1CCC(O)(C(O)CN2CCC(c3ccc(F)cc3)CC2)CC1 (stereo not shown) [Compound 129] | 500 | 8000 | – | – | – |
| O=C(/C=C/c1ccc(Cl)c(Cl)c1)N1CCC(O)(C(O)CN2CCC(c3ccc(F)cc3)CC2)CC1 (stereo not shown) [Compound 131] | 180 | 380 | – | – | – |
| O=C(Nc1ccc(F)c(F)c1)N1CCC(O)(C(O)CN2CCC(c3ccc(F)cc3)CC2)CC1 (stereo not shown) [Compound 132, 4-{2-[4-(4-fluoro-phenyl)-piperidin-1-yl]-1-hydroxy-ethyl}-4-hydroxy-piperidine-1-carboxylic acid (3,4-difluoro-phenyl)-amide] | 2400 | – | – | 26 | – |
| O=C(Nc1ccc(Cl)c(Cl)c1)N1CCC(O)(C(O)CN2CCC(c3ccc(F)cc3)CC2)CC1 (stereo not shown) [Compound 134, 4-{2-[4-(4-fluoro-phenyl)-piperidin-1-yl]-1-hydroxy-ethyl}-4-hydroxy-piperidine-1-carboxylic acid (3,4-dichloro-phenyl)-amide] | 1900 | – | – | 52 | – |
| OC(CN1CCC(c2ccc(F)cc2)CC1)C1(O)CCN(C(=S)Nc2ccc(Cl)c(Cl)c2)CC1 (stereo not shown) [Compound 135, 4-{2-[4-(4-fluoro-phenyl)-piperidin-1-yl]-1-hydroxy-ethyl}-4-hydroxy-piperidine-1-carbothioic acid (3,4-dichloro-phenyl)-amide] | 730 | 9200 | – | – | – |
| O=C(/C=C/c1ccc(Cl)c(Cl)c1)N1CCC(O)(C(O)CN2CCC(c3ccc(C(F)(F)F)cc3)CC2)CC1 (stereo not shown) [Compound 139] | 920 | 310 | – | – | – |
| O=C(/C=C/c1cc(F)c(F)c(F)c1)N1CCC(O)(C(O)CN2CCC(O)(c3ccc(F)cc3)CC2)CC1 (stereo not shown) [Compound 152] | 3100 | – | – | 43 | – |
| O=C(/C=C/c1ccc(F)c(F)c1)N1CCC(O)(C(O)CN2CCC(O)(c3ccc(F)cc3)CC2)CC1 (stereo not shown) [Compound 153] | 730 | – | – | 12 | – |
| O=C(/C=C/c1ccc(Cl)c(Cl)c1)N1CCC(O)(C(O)CN2CCC(c3c[nH]c4ccc(F)cc34)CC2)CC1 (stereo not shown) [Compound 158] | 350 | 2100 | – | – | – |
| O=C(/C=C/c1ccc(F)c(Br)c1)N1CCC(O)(C(O)CN2CCC(c3c[nH]c4ccc(F)cc34)CC2)CC1 (stereo not shown) [Compound 159] | 730 | 1500 | – | – | – |
| O=C(CCc1ccc(Cl)cc1)N1CCC(O)(C(O)CN2CCC(c3c[nH]c4ccc(F)cc34)CC2)CC1 (stereo not shown) [Compound 160, 3-(4-chloro-phenyl)-1-(4-{2-[4-(5-fluoro-1H-indol-3-yl)-piperidin-1-yl]-1-hydroxy-ethyl}-4-hydroxy-piperidine-1-yl)-propan-1-one] | 840 | 3600 | – | – | – |
| O=C(/C=C/c1ccc(Cl)c(Cl)c1)N1CCC(O)(C(O)CN2CCC(c3c[nH]c4ccc(N5CCOCC5)cc34)CC2)CC1 (stereo not shown) [Compound 169] | 790 | 5400 | – | – | – |
| O=C(/C=C/c1ccc(Cl)cc1)N1CCC(O)(C(O)CN2CCC(c3c[nH]c4ccc(N5CCOCC5)cc34)CC2)CC1 (stereo not shown) [Compound 170] | 4400 | 17200 | – | – | – |
| O=C(/C=C/c1ccc(F)cc1)N1CCC(O)(C(O)CN2CCC(c3c[nH]c4ccc(N5CCOCC5)cc34)CC2)CC1 (stereo not shown) [Compound 171] | 12800 | – | – | 22 | – |
